Reference: patent EP0370481A2, “Pharmaceutical preparations for the enhanced resorption of antibacterial compounds” (priority 1988, dated 1990)

Tests used:
[1] = Rectal absorption in vivo (monkeys): suppositories, plasma level
Description: Für diesen Versuch wurden männliche und weibliche erwachsene Affen (Papio anubis und Papio hamadryas) im Gewicht vom 12-27 kg verwendet, die 24 Stunden vor der Verabreichung des Antibiotikums fasten gelassen wurden, dann durch i.m.-Injektionen von Kefamin Hydrochlorid vor der Verabreichung des Antibiotikums sediert wurden. Aus den nachstehend beschriebenen Formulierungen wurden Suppositorien hergestellt die den Tieren verabreicht wurden. Die Rektalöffnungen wurden dann mit Klebeband verschlossen, um ein Herausdrücken der Suppositorienmasse zu vermeiden.
Zur Messung der Resorption des Antibiotikums in den Blutstrom wurden Blutproben aus der Femoralregion vor der Verabreichung des Antibiotikums und 15, 30, 60, 120, 240, 360 und 480 Minuten danach entnommen. Proben wurden zentrifugiert und wie oben beschrieben vermessen.

[2] = Enteral absorption in vivo (rats): intraduodenal injection, antibiotic plasma level by agar-plate bioassay; conditions: Dosis = 5 mg/0,5 ml
Description: Weibliche Ratten im Gewicht von etwa 250 g wurden über Nacht fasten gelassen und mit Metofan anästhesiert. Die Antibiotika wurden in Lösung mit oder ohne Resorptionsver, stärker nach Bauchschnitt in das Duodenum unterhalb des Magenausgangs injiziert. Für Vergleichszwecke wurde die Lösung alternativ intravenös in die Schwanzvene appliziert.
Die Konzentration des Antibiotikums im Plasma der Ratte wurde nach verschiedenen Zeitintervallen nach intravenöser oder enteraler Verabreichung bestimmt. Blutproben wurden aus der Schwanzvene des Versuchstiers vor der Verabreichung des Antibiotikums und 5, 10, 20, 40, 60, 120, 240 und 360 Minuten danach entnommen, danach zentrifugiert und das Plasma bis zur Analyse eingefroren.
Antibiotika, die nicht an Plasma gebunden waren, wurden mit Wasser verdünnt und gegen in Wasser hergestellte Standards geprüft. Für gebundene Antibiotika wurde der Einfluss der Proteinbindung eliminiert durch Verdünnen aller Standardlösungen und Proben im gesammelten Plasma. Im Fall von Ceftriaxon in Cefazolin wurde der Effekt der Bindung dadurch berücksichtigt, dass Plasmaproben mit Acetonitril mit einem Verdünnungsfaktor 1:12 deproteinisiert und gegen eine Standardkurve in Wasser verdünnt gemessen wurden. Antibiotikaspiegel wurden wie unten angegeben auf Agarplatten ermittelt.
Die Platten wurden bei 37°C über Nacht bebrütet und die Hemmzonen auf die nächsten […] abgelesen. Die Berechnungen wurden mittels einer Autoassaymaschine (Giles Scientific, Inc., New York) vorgenommen. Vergleiche J.V. Bennett et al., Applied Microbiology 14, 170-177 (1966).

[3] = Oral absorption in vivo (monkeys): enteric-coated hard gelatin capsules by gavage, plasma bioassay; conditions: for Cmax: monkey, plasma
Description: Erwachsene Affen (Papio anubis und Papio hamadryas) im Gewicht von 12-30 kg wurden über Nacht fasten gelassen, dann durch i.m.-Injektion von Ketaminhydrochlorid vor der Verabreichung des Antibiotikums sediert. Jeder Affe erhielt vier Hartgelatinekapseln durch Schlundsonde mit der folgenden Zusammensetzung:
Die Kapseln wurden mit einem Ueberzug von Polyvinylacetatphthalat (etwa 8% des Kapselgewichtes versehen).
1 ml Pro Blutproben wurden aus der Femoralregion jedes Affen mit einer heparinisierten 3-ml Spritze entnommen. Die Proben wurden vor der Verabreichung des Antibiotikums und 15, 30, 60, 120, 240, 360, 480, 600 und 720 Minuten danach entnommen. Die Blutproben wurden zentrifugiert und das Plasma nach Deproteinisierung mit Acetonitril einem Bioassay unterworfen.

[4] = Enteral absorption in vivo (dogs): capsules through a modified Thomas cannula into the proximal jejunum, plasma level and bioavailability; conditions: for Cmax: beagle, dog, plasma
Description: Als Versuchstiere wurden sechs Beagle-Hunde im Gewicht von etwa 10-16 kg eingesetzt, denen eine modifizierte Thomaskanüle in das distale Duodenum eingesetzt worden war. […] Die Kapseln wurden durch die modifizierte Thomaskanüle in das proximale Jejunum appliziert. Die Dosierung war 20-50 mg Ceftriaxon pro kg Körpergewicht.
Die Plasmakonzentrationen von Ceftriaxon wurden vor der Verabreichung und 10, 20, 40, 60, 120, 180 und 240 Minuten nach der Verabreichung ermittelt. Zur Erstellung einer Standardkurve wurde Ceftriaxon mit normalem Hundeplasma verdünnt und deproteinisiert. Die Fläche unter der Kurve (AUC) wurde für jede Verabreichungsweise bestimmt. Aus diesen Bestimmungen wurde die Bioverfügbarkeit wie folgt berechnet. [formula]
Wenn keine i.v.-Daten für den gleichen enteral verwendeten Dosisspiegel verfügbar waren, wurde die folgende Gleichung angewandt: [formula]

[5] = Oral absorption in vivo (dogs): enteric-coated hard gelatin capsules by gavage, plasma level; conditions: for Cmax: male, beagle, dog, plasma
Description: Für diesen Versuch wurden männliche Beagle-Hunde im Gewicht von 10-14 kg verwendet, die 2-3 Hartgelatinekapseln durch die Schlundsonde erhielten. Die Kapseln hatten folgende Zusammensetzung:
Die Kapseln waren mit einem Ueberzug von Polyvinylacetatphthalat (etwa 8% des Kapselgewichtes versehen).
Die Plasmakonzentrationen wurden von Ceftriaxon vor der Verabreichung und 10, 20, 40, 60, 120, 180 und 240 Minuten nach der Verabreichung ermittelt. Die Messungen wurden in Blutplasma nach Deproteinisierung weiter oben beschrieben ermittelt.

[6] = both sexes, monkey, plasma, 500 mg, rectal suppository, Mit Resorptionsverstärker System: 500 mg Antibiotikum, 125 mg Laureth-12, 250 mg Labrasol, 1125 mg Witepsol H15, read-out: Cmax Bereich
[7] = rectal suppository, Kontrolle ohne Resorptionsverstärker
[8] = rectal suppository, Mit Resorptionsverstärker System: 500 mg Antibiotikum, 125 mg Laureth-12, 250 mg Labrasol, 1125 mg Witepsol H15
[9] = both sexes, monkey, plasma, rectal suppository, Kontrolle ohne Resorptionsverstärker, read-out: Cmax Bereich
[10] = Kontrollwert: Ceftriaxonnatrium 300 mg in the same capsule without absorption enhancer
[11] = enteral (proximal jejunum), 2 capsules with 210 ml Ceftriaxonnatrium in 280 mg WITEPSOL H15 + 157,5 mg Labrasol + 52,5 mg Laureth-12, 20-50 mg/kg
[12] = 2-3 enteric-coated capsules each 300 mg Ceftriaxonnatrium, 225 mg Labrasol, 75 mg Laureth-12, 380 mg Witepsol H15

## CO[C@@]1(NC(=O)Cc2cccs2)C(=O)N2C(C(=O)O)=C(COC(N)=O)CS[C@@H]21 [Cefoxitin]
[1]; [6]
  Cmax: 4.7 to 10.8 µg/mL
[1]; [7]
  % Bioverfügbarkeit: 0%
[1]; [8]
  % Bioverfügbarkeit: 77.0 ± 22.5%

## CC1(C)S[C@@H]2[C@H](NC(=O)Cc3ccccc3)C(=O)N2[C@H]1C(=O)O [Penicillin G]
[1]; baboon, in vivo, rectal suppository, Kontrolle ohne Resorptionsverstärker, read-out: Cmax Bereich
  Cmax: 1.2 to 2.4 µg/mL
[1]; baboon, in vivo, rectal suppository, Mit Resorptionsverstärker System: 500 mg Antibiotikum, 125 mg Laureth-12, 250 mg Labrasol, 1125 mg Witepsol H15, read-out: Cmax Bereich
  Cmax: 2 to 11.1 µg/mL
[1]; [7]
  % Bioverfügbarkeit: 17.4 ± 8.0%
[1]; [8]
  % Bioverfügbarkeit: 38.2 ± 26.1%
[2]; rat, in vivo, 5 mg, Cmax, Acconon Con + Laureth-12 (weight ratio 8:1)
  Cmax: 3.5 ± 1 µg/mL
[2]; rat, in vivo, 5 mg, Cmax, Kontrolle Wasser, no absorption enhancer
  Cmax: 0.5 ± 0.1 µg/mL
[2]; rat, in vivo, 5 mg, Cmax, Labrasol + Laureth-12 (weight ratio 8:1)
  Cmax: 5.2 ± 1.6 µg/mL
[2]; rat, in vivo, 5 mg, Cmax, Natriumcaprylat (30%) + Laureth-12 (weight ratio 8:1)
  Cmax: 7.4 ± 2.4 µg/mL

## CN[C@H](CC(C)C)C(=O)N[C@H]1C(=O)N[C@@H](CC(N)=O)C(=O)N[C@H]2C(=O)N[C@H]3C(=O)N[C@H](C(=O)N[C@H](C(=O)O)c4cc(O)cc(O)c4-c4cc3ccc4O)[C@H](O)c3ccc(c(Cl)c3)Oc3cc2cc(c3O[C@@H]2O[C@H](CO)[C@@H](O)[C@H](O)[C@H]2O[C@H]2C[C@](C)(N)[C@H](O)[C@H](C)O2)Oc2ccc(cc2Cl)[C@H]1O [Vancomycin]
[2]; female, rat, in vivo, 5 mg/0,5 ml, Cmax, Kontrolle Wasser, no absorption enhancer
  Cmax: 2.9 ± 0.6 µg/mL
[2]; female, rat, in vivo, 5 mg/0,5 ml, Cmax, Labrasol + Laureth-12 (weight ratio 8:1)
  Cmax: 6.9 ± 1 µg/mL
[2]; female, rat, in vivo, 5 mg/0,5 ml, Cmax, Natriumcaprylat (30%) + Laureth-12 (weight ratio 8:1)
  Cmax: 9.8 ± 3.5 µg/mL

## Gentamicin
[2]; Acconon Con + Laureth-12 (weight ratio 8:1)
  Cmax: 15.4 ± 2.3 µg/mL
[2]; Kontrolle Wasser, no absorption enhancer
  Cmax: 3.9 µg/mL
[2]; Labrasol + Laureth-12 (weight ratio 8:1)
  Cmax: 9.6 ± 1.9 µg/mL
[2]; Natriumcaprylat (30%) + Laureth-12 (weight ratio 8:1)
  Cmax: 14.1 ± 6.9 µg/mL

## Cn1nnnc1SCC1=C(C(=O)O)N2C(=O)[C@@H](NC(=O)[C@H](O)c3ccccc3)[C@H]2SC1 [Cefamandole, Cefamandol]
[1]; [6]
  Cmax: 5.9 to 16.4 µg/mL
[1]; [9]
  Cmax: 2.3 to 4.6 µg/mL
[1]; [7]
  % Bioverfügbarkeit: 6.0 ± 2.3%
[1]; [8]
  % Bioverfügbarkeit: 46.5 ± 16.6%

## CO/N=C(\C(=O)N[C@@H]1C(=O)N2C(C(=O)O)=C(CSc3nc(=O)c(=O)[nH]n3C)CS[C@H]12)c1csc(N)n1 [Ceftriaxon]
[1]; [6]
  Cmax: 18.2 to 49.6 µg/mL
[1]; both sexes, monkey, plasma, 600 mg, rectal, Kontrollwert: 600 mg Ceftriaxonnatrium in suppository mass without absorption enhancer, read-out: Cmax-Bereich
  Cmax: 0.3 to 9 µg/mL
[1]; both sexes, monkey, plasma, 600 mg, rectal, formulation 600 mg Ceftriaxonnatrium, 200 mg Natriumcaprylat, 125 mg Laureth-12, 1075 mg Witepsol H15, read-out: Cmax-Bereich
  Cmax: 68.1 to 1000 µg/mL
[1]; [9]
  Cmax: 0.3 to 9 µg/mL
[1]; [7]
  % Bioverfügbarkeit: 4.3 ± 2.8%
[1]; [8]
  % Bioverfügbarkeit: 31.5 ± 13.1%
[1]; rectal, Kontrollwert: 600 mg Ceftriaxonnatrium in suppository mass without absorption enhancer
  Bioverfügbarkeit: 4,3%
[1]; rectal, formulation 600 mg Ceftriaxonnatrium, 200 mg Natriumcaprylat, 125 mg Laureth-12, 1075 mg Witepsol H15
  Bioverfügbarkeit: 49,3 ± 13.7%
[3]; 4 enteric-coated capsules each 300 mg Ceftriaxonnatrium, 225 mg Labrasol, 75 mg Laureth-12, 380 mg Witepsol H15
  Bioverfügbarkeit: 10,8 ± 6,5%
[3]; [10]
  Bioverfügbarkeit: 0%
[3]; formulation 300 mg Ceftriaxonnatrium, 75 mg Laureth-12, 415 mg Witepsol H15
  Bioverfügbarkeit: 15,7 + 9,9%
[3]; 300 mg per capsule, formulation 300 mg Ceftriaxonnatrium, 200 ml Natriumcaprylat, 75 mg Laureth-12, 415 mg Witepsol H15, read-out: Cmax-Bereich
  Cmax: 15 to 66.3 µg/mL
[3]; 1200 mg, 4 enteric-coated capsules each 300 mg Ceftriaxonnatrium, 225 mg Labrasol, 75 mg Laureth-12, 380 mg Witepsol H15, read-out: Cmax-Bereich
  Cmax: 5.5 to 59.8 µg/mL
[4]; [11]
  Cmax: 19.5 µg/mL
  Bioverfügbarkeit: 45,4 ± 18,2%
[4]; other: enteral, enteral, Kontrolle: solution of Ceftriaxon in water equivalent to 25 mg/kg, no absorption enhancer
  Cmax: 0.5 µg/mL
[4]; enteral, Kontrolle: solution of Ceftriaxon in water equivalent to 25 mg/kg, no absorption enhancer
  Bioverfügbarkeit: 0%
[5]; [12]
  Bioverfügbarkeit: 34,2 ± 14,0%
  Cmax: 21.6 µg/mL
[5]; [10]
  Bioverfügbarkeit: 0%
[5]; formulation 300 mg Ceftriaxonnatrium, 200 mg Natriumcaprylat, 75 mg Laureth-12, 415 mg Witepsol H15
  Bioverfügbarkeit: 22,4 + 13,5%
[5]; 300 mg per capsule, formulation 300 mg Ceftriaxonnatrium, 200 mg Natriumcaprylat, 75 mg Laureth-12, 415 mg Witepsol H15
  Cmax: 14.4 µg/mL
[2]; female, rat, plasma, 5 mg/0,5 ml, Cmax, Acconon Con + Laureth-12 (weight ratio 8:1)
  Cmax: 38.8 ± 22.6 µg/mL
[2]; female, rat, plasma, 5 mg/0,5 ml, Cmax, Kontrolle Wasser, no absorption enhancer
  Cmax: 2.4 ± 1.9 µg/mL
[2]; female, rat, plasma, 5 mg/0,5 ml, Cmax, Labrasol + Laureth-12 (weight ratio 8:1)
  Cmax: 106 ± 23 µg/mL
[2]; female, rat, plasma, 5 mg/0,5 ml, Cmax, Natriumcaprylat (30%) + Laureth-12 (weight ratio 8:1)
  Cmax: 53.7 ± 13.3 µg/mL
